From patent US20240075004A1, “VERY-LONG-CHAIN POLYUNSATURATED FATTY ACIDS, ELOVANOID HYDROXYLATED DERIVATIVES, AND METHODS OF USE” (The Board of Supervisors of Louisiana State University and …, priority 2020, published 2024)

Tests used:
ARPE-19 cells = assay: Protein abundance and apoptosis in ARPE-19 cells undergoing UOS; assay type: cell-based; conditions: RPE cells under UOS; sodium salt forms
Method: ELV-N32 or ELV-N34 indicates the sodium salt forms, and ELV-N34-Me or ELV-N32-Me indicates the methyl ester forms. ELVs induces the following effects in ARPE-19 cells undergoing UOS: (panel a) Concentration-dependent (100 and 250 nM) upregulation of SIRT1. The results are the averages of three independent experiments; (panel b) upregulation of Iduna abundance; (panel c) increased abundance of anti-apoptotic proteins Bcl-2 and Bcl-xL; (panel d) decreased abundance of pro-apoptotic proteins Bax, (panel e) Bid and (panel f) Bim. (panel g) Concentration-dependent (100 and 250 nM) upregulation of Prohibitin (type-1) by ELVs takes place. (panel h) Concentration-dependent (50, 100, 250, and 500 nM) reduction of UOS-induced apoptosis. Error bars, SEM; *p<0.05.

[1] = test system: senescence, autophagy, AMD, ECM remodeling and apoptosis genes; assay: RPE and retina gene expression (qPCR) after subretinal OAβ (1-42) injection; assay type: in vivo, C57BL/6J WT mice; conditions: OAβ subretinally administered in WT mice
Method: All animal experiments were performed according to ARVO Statement for the Use of Animals in Ophthalmic and Vision Research, and the protocol was approved by LSU Health New Orleans' Institutional Animal Care and Use Committee (IACUC). 6-month-old 5×FAD mice (stock number: 34848-JAX, The Jackson Laboratory, Bar Harbor, ME, USA), co-overexpress FAD mutant forms of human amyloid precursor protein (the Swedish mutation: K670N, M671L; the Florida mutation: I716V; and the London mutation: V7171) and presenilin 1 (PS1, encoded by Psen1: M146L, L286V) transgenes under transcriptional control of the neuron-specific mouse Thy1 promoter. 5×FAD mice were hemizygotes with respect to the transgenes and non-transgenic WT littermates. Genotyping was performed by PCR of tail DNA. All analyses were carried out blind with respect to the mice genotype. […]
For the in vivo experiments, eyeballs were enucleated and anterior segment containing the cornea, lens and iris removed and the retina separated from the rest of the eyecup (RPE/choroid). […] Quantitative PCR was performed in a CFX-384 Real-Time PCR system (Bio-Rad). The expression of target genes was normalized to the geometric mean of housekeeping genes and relative expression was calculated by the comparative threshold cycle method (ΔΔCT).

primary human RPE cells = assay: Primary human RPE cells challenged with OAβ: SA-β-Gal staining and qPCR; assay type: cell-based; conditions: 10 μM OAβ; qPCR after 3 days, SA-β-Gal after 7 days
Method: All experiments with primary human RPE cells were approved by the Institutional Review Board of LSUHNO and conducted in accordance with NIH guidelines. Cells were collected from anonymous donors provided by eye banks. Briefly, globes of a person, without eye pathology were obtained from NDRI within 24 hours after death from head trauma. Globes were opened, and RPE cells harvested and cultured (1, 2) and grown in MEM medium supplemented with 10% FBS, 5% NCS, non-essential amino acids, Penicillin-Streptomycin (100 U/mL), human fibroblast growth factor 10 ng/ml and incubated at 37° C. with a constant supply of 5% CO2. Cells integrity was validated as in previous study (3). For oligomeric Aβ treatment, cells were seeded in the 6-well plates, 30.000 cells/cm2. After 2 days, sub-confluent cells were treated with 10 μM OAβ or with PBS (vehicle control).
Aβ (1-42) (HFIP-treated, ANASPEC Company, Fremont, CA, USA, Cat AS-64129) was resuspended by adding 1% NH4OH/Water and DMSO to obtain a concentration 500 μM and sonicated for 10 min. […]
Cells were visualized using SA-β-Gal staining kit (Cat 9860, Cell Signaling Technology, MA, USA). […] Pictures were taken under brightfield microscope (Nikon Eclipse TS100) 200× magnification after the development of blue color, and cells counted in 10 different random fields per well. […]

[2] = methyl ester or sodium salt, cited from earlier work; for infarct volumes: administered 1 hour following 2 hours of ischemia by MCA occlusion; for cell survival / neurovascular unit disruption: administered 1 hour following 2 hours of ischemia

Structure (SMILES)	abundance of cell damaging proteins (ARPE-19 cells)	abundance of pro-homeostatic proteins (ARPE-19 cells)	OAβ-activated senescence program (p16INK4a, MMP1, p53, p21, p27, Il-6 gene expression, SASP secretome) followed by RPE and PRC demise [1]	OAβ-altered RPE cell morphology, SASP (SA-β-Gal staining) and expression of senescence, AMD, matrix metalloproteinase and autophagy-related genes (primary human RPE cells)	infarct volumes [2]	cell survival [2]	neurovascular unit disruption [2]
CC/C=C\C[C@H](O)\C=C/C=C/C=C/[C@H](O)C/C=C\C/C=C\CCCCCCCCCCCCCCC(=O)O [ELV-N-34]	decrease abundance	enhance abundance	blunt these events and elicit protection to both cells	reverted these effects	reduced	promoted	diminished
CC/C=C\C[C@H](O)\C=C/C=C/C=C/[C@H](O)C/C=C\C/C=C\CCCCCCCCCCCCC(=O)O [ELV-N-32]	decrease abundance	enhance abundance	blunt these events and elicit protection to both cells	reverted these effects	reduced	promoted	diminished
